# From paper PMC11061149, “Protein mimetic 2D FAST rescues alpha synuclein aggregation mediated early and post disease Parkinson’s phenotypes” (Nature Communications, 2024)
# Several values for one entry are separate records, joined by “and”; a condition that tells them apart may be missing. Equal entries are not always repeated.
# Columns and labels:
# [1] = Parallel artificial membrane permeability assay (PAMPA); type: in vitro ADME
# Experimental: The permeability of various ligands was assessed with a PAMPA kit (BioAssay Systems, Hayward, CA) according to a previously described protocol. Briefly, 4% lecithin solution (LS) was prepared in dodecane and 5 µL was applied to the donor plate membrane. Then, 300 μL PBS was added to the acceptor plate. Subsequently, 200 µL of ligand solutions (500 μM) and various permeability standards (high, medium, and low, 500 μM) were added to the donor plate membrane. The donor plate was placed in the acceptor plate and incubated at r.t. for 18 h. The solutions were then moved from the acceptor plate into a clear-bottom 96-well plate (Corning Inc., Corning, NY) and absorbance was recorded at 360 nm for various ligands and 275 nm for permeability standards. The permeability was calculated using Eq. (1) below, where the permeability rate, C, equals 7.72 × 10^–6, ODA is the absorbance of the acceptor solution, and ODE is the absorbance of the equilibrium standard.1 Pe=C×−ln1−ODA/ODEcm/s
# UA196 worms [2] = assay: Chemotaxis assay of UA196 worms; type: in vivo, C. elegans; conditions: 50 µM ligand, day 10, E. coli attractant vs ethanol repellent
# Experimental: For chemotaxis assay, the Chemotaxis (CTX) media plates (2% Agar, 5 mM KH2PO4, 1 mM CaCl2, 1 mM MgSO4, 75 µM FUDR), referred to as PLATE 7, and CTX buffer (5 mM KH2PO4, 1 mM CaCl2, and 1 mM MgSO4) were prepared using previous protocols[24],[78],[85],[86]. The PLATE 7 (without ligand) were treated with ligand (50 µM, stock conc. = 10 mM in DMSO) that was dissolved in CTX buffer (total volume = 300 µL) and was spotted atop the CTX media plates at 20 °C, referred to as PLATE 8. For CTX assay, we prepared another plate referred to as PLATE 9, which was PLATE 7 divided into four equal quadrants and designated as A and C (diagonally opposite), B and D (diagonally opposite). […] The experiment on the WMicroTracker ARENA plate reader (Phylumtech, Santa Fe, Argentina) started within 1 h of the transfer of the worms at 20 °C. […] On day 3, a total of 50 worms were transferred to the center of the PLATE 9 using CTX buffer ( ~20 µL) and the number of worms were counted under an Olympus microscope (SZ-6145, Waltham, MA). […] The worm activity was monitored using the WMicroTracker ARENA plate reader (Phylumtech, Santa Fe, Argentina) at 20 °C for 2 h. […] For day 10, 50 worms (N2 or UA196) from PLATE 7 (without ligand) or PLATE 8 (with 50 µM ligand) were transferred to PLATE 9 using CTX buffer ( ~ 20 µL) and the number of worms were counted under an Olympus microscope (SZ-6145, Waltham, MA). […]
# UA196 worms [3] = assay: ROS level in UA196 worms (H2DCFDA dye); type: in vivo, C. elegans
# Experimental: The worm strains were bleached at the same time and the eggs were incubated on PLATE 1. On day two, the worms were divided into two batches. One half of the worms were transferred (using M9 buffer) on PLATE 2 (without ligand) and the second half of the worms were transferred to PLATE 3 (with ligand). The concentration of the ligands was 50 µM as described in the main manuscript. On day four, the ligand (10–50 μM in M9 buffer with 0.1%-0.5% DMSO, v/v) was spotted again atop the PLATE 3 at 20 °C. The worms were incubated on PLATE 2 or PLATE 3 up to day eight at 20 °C in an incubator with constant humidity. On day eight, the worms were transferred into 1.7 mL microcentrifuge tubes using M9 buffer (1 mL) and washed with M9 buffer (1 mL and three times) by centrifugation for 2 min at 700xg and 20 °C. Subsequently, a total of 100 worms/well were transferred to a Costar 96-well black plate (Corning, Kennebunk, ME) containing 100 μL solution, including M9 buffer (89 μL), worm solution (10 μL and 100 worms), and 2’,7’-dichlorofluorescein diacetate (H2DCFDA) dye (1 μL, 50 μM, stock solution = 5 mM in cell culture grade DMSO, 99% pure). As a control, 99 μL of M9 buffer and 1 μL of 5 mM H2DCFDA reaction solution was placed in the wells. Subsequently, the Costar 96-well plate was gently shaken for 30 sec at 20 °C and the fluorescence intensity was measured (λex = 485 nm and λem = 530 nm) at multiple time points (0 to 120 min) using the Infinite M200 Pro Plate Reader (Tecan, Männedorf, Switzerland)[65],[89].
# For confocal imaging, the same UA196 worms (in the absence and presence of ligands) used for the quantification of ROS, were transferred from the 96-well plate into PLATE 2, air-dried into the sterile laminar flow hood. The worms ( ~ 10 worms) were transferred to a cover slide containing an anesthetic (40 mM sodium azide) and mounted on a glass microscope slide containing 2% agarose pads for the confocal imaging as described in the previous sections. This experiment consisted of three biological replicates and each biological replicate consisted of three technical replicates.
structure (smiles),measurement,setting,value
Cc1ccc(NC(=O)c2ccc(NC(=O)c3ccc([N+](=O)[O-])c(NCCc4c[nH]c5ccccc45)n3)c(NCC3CCCCC3)n2)c(OCC(=O)O)n1 [NS132],"cell permeability (PAMPA), comparison in words",[1],lower in comparison to the PAMPA medium standard
same,"PAMPA permeability (Pe), individual trials","[1]; 500 μM in donor, 18 h, r.t., unit from Eq. 1",2.69 ×10⁻⁶ cm/s and 2.41 ×10⁻⁶ cm/s and 2.71 ×10⁻⁶ cm/s and 2.89 ×10⁻⁶ cm/s
same,"Papp at 18 h, 500 μM","[1]; PAMPA, 500 μM in donor, 18 h, r.t., unit from Eq. 1, read-out: PAMPA permeability (Pe), individual trials",2.92 ×10⁻⁶ cm/s
same,"behavioral deficits / chemotaxis index of UA196 worms, in words",UA196 worms [2],able to rescue behavioral deficits
same,"intracellular ROS level in UA196 worms, in words","UA196 worms [3]; 50 µM ligand on day two and four, day eight",low
same,"ROS dye signal, Average","UA196 worms [3]; UA196+NS132, Time 0 min",169.8
same,"ROS dye signal, Average","UA196 worms [3]; UA196+NS132, Time 60 min",210.6
same,"ROS dye signal, Average","UA196 worms [3]; UA196+NS132, Time 120 min",301.6
